Experimental findings from patent US20230265296A1, “COATING COMPOSITION INCLUDING ALKYL OXIMES” (AdvanSix Resins & Chemicals LLC, priority 2015, published 2023) are described below.

Molecules are shown by their SMILES.

The nature of data set [1]: Vapor pressure. The data set is classed as physicochemical. The note with it: at 20° C.
Data set [2] deals with algae. As to the kind of experiment: Algae growth inhibition (EC50). In kind it is cell-based.
Data set [3] deals with fish. The data set is described as follows: Fish mortality (LC50). In kind it is in vivo.
Data set [4] can be described thus: Saturated vapor concentration. The data set is classed as physicochemical.
A short description of data set [5]: Eye irritation categorisation. The note with it: hazard code.
A short description of data set [6]: Dermal irritation.
Data set [7] in a line: Sensitization classification.

For the molecule `CCC(C)=NO` [MEKO, methyl ethyl ketoxime, reference compound], the vapor pressure in data set [1] was determined as 2.00 mm Hg. The “effective concentration of 50% growth inhabitation (EC50) for algae” value in data set [2] was determined as 7 ppm. Also, the “lethal concentration of 50% mortality (LC50) for fish” value in data set [3] is reported as 48 ppm. In data set [4], the saturated vapor concentration is 1350 ppm.
Regarding `CC(CC(C)C)=NO` [MIBKO, methyl isobutyl ketoxime], the vapor pressure result in data set [1] is given as “about 0.13 hPa”.
With `C/C(=N/O)C(C)C` [3-methyl-2-butanone oxime], in data set [1], the vapor pressure result was “less than 0.975 mm Hg”.
Consider `CCC/C(C)=N\O` [2-PO, 2-pentanone oxime], for which the results for the vapor pressure entry in data set [1] and in data set [1] (listed as 2-pentanone oxime) were “about 1.60 mm Hg” and “about 2.14 hPa”, respectively. Also, the eye irritation category result in data set [5] was “serious eye irritation (code H319)”. In addition, the “effective concentration of 50% growth inhabitation (EC50) for algae” value in data set [2] was 88 ppm. Also, the “lethal concentration of 50% mortality (LC50) for fish” value in data set [3] was “greater than 100 ppm”. Besides, in data set [6], the dermal irritation result is recorded as “no irritation”. Moreover, the sensitizer classification entry in data set [7] was “not a sensistizer”. Besides, the saturated vapor concentration in data set [4] is recorded as 300 ppm. For the same molecule, the “saturated vapor concentration relative to that of MEKO” value in data set [4] (2-PO versus MEKO) is given as “less than 25%”.
